Measured values published in article PMC3901077 (Journal of medicinal chemistry, 2010).
Like-named read-outs stand apart in the source and are kept apart here.

Experiments:
[1] = system: A549 human lung carcinoma cells; assay: MTT cytotoxicity assay in A549 cells; type: cell-based; conditions: IC50 versus CPT

Row | SMILES | fold less potent than parent drug (CPT) [1] | CPT reconversion rate (rank among prodrugs) (PB pH 6.6, 7.0 and 7.4) | time for ester bond hydrolysis (PB pH 6.6, 37 °C) [h] | time for ester bond hydrolysis (PB pH 7.0, 37 °C) | time for ester bond hydrolysis (PB pH 7.4, 37 °C) [h] | stability (rank among prodrugs) (PB pH 6.6, 7.0 and 7.4)
1 | CC[C@@]1(OC(=O)CN)C(=O)OCc2c1cc1n(c2=O)Cc2cc3ccccc3nc2-1 [Prodrug 2a] | about 2 fold | fastest | ≤ 96 | ≤ 96 h | ≤ 72 | 
2 | CC[C@@]1(OC(=O)[C@@H](C)N)C(=O)OCc2c1cc1n(c2=O)Cc2cc3ccccc3nc2-1 [Prodrug 2b] | ~20 fold |  | 96 | 96 h | ≤ 72 | 
3 | CC[C@@H](N)C(=O)O[C@]1(CC)C(=O)OCc2c1cc1n(c2=O)Cc2cc3ccccc3nc2-1 [Prodrug 2c] |  |  | 120 | ~ 120 h | ≤ 96 | 
4 | CCC[C@@H](N)C(=O)O[C@]1(CC)C(=O)OCc2c1cc1n(c2=O)Cc2cc3ccccc3nc2-1 [Prodrug 2d] |  |  | 144 | ≤ 120 h | ≤ 120 | most stable
